Assay [1] concerns the target T1, human Cot catalytic domain (30-397 amino acids) (Homo sapiens, UniProt P41279).
T1 construct: Purified recombinant human Cot catalytic domain (30-397 amino acids) was purchased from Cama Biosciences; purchased Cama Biosciences (so in the source)
Nature of the assay: High Throughput Cot Biochemical Assay (KinEASE TR-FRET). To be noted: read-out: IC50 HTRF. The method in brief: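 Reaction of 5 nM recombinant human Cot catalytic domain (aa 30-397) with 1 μM STK3 peptide (XL665-labeled) and 400 μM ATP in 10 mM MOPS pH 7.0, 10 mM MgOAc, 1 mM DTT, 0.5 mg/mL BSA, 0.1% DMSO. Phosphopeptide detected by TR-FRET with europium anti-phospho antibody.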

The test system of assay [2] is TNFα production in LPS-stimulated human monocytes. Nature of the assay: Cot Monocyte TNFα Cell Based Assay. To be noted: Homo sapiens, Monocyte, read-out: EC50 TNF. The method in brief: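 Cells at 5,000/well were pretreated with compound for 1 h at 37 °C (0.5% DMSO final), then stimulated with 50 pg/ml LPS for 4 h at 37 °C. Supernatant TNFα was measured by two-antibody TR-FRET after overnight room-temperature incubation; values are percent of control between unstimulated and stimulated wells.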

Setting [3] is: Cot biochemical HTRF (KinEASE TR-FRET) assay.
Setting [4] is: TNFα in LPS-stimulated human monocytes.
[5] abbreviates: Cot KinEASE TR-FRET (HTRF) biochemical assay, 400 μM ATP.
The mark [6] stands for this setting: Cot KinEASE TR-FRET, 400 μM ATP.
The mark [7] stands for this setting: LPS-stimulated human monocytes, TNFα TR-FRET.

Read-outs that look alike come from different tables or passages of the source.

T1 sequence (P41279 30-397): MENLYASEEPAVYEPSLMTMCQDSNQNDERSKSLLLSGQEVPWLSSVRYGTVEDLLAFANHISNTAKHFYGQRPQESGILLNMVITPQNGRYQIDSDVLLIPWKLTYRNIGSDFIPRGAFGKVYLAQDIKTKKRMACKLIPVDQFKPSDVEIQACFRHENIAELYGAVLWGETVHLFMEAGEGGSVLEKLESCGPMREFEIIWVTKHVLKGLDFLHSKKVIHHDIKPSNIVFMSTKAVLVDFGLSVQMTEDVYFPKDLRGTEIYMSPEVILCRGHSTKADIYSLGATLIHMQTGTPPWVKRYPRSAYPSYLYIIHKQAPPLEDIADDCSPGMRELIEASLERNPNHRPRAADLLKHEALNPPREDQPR

On to `N#Cc1cnc2c(Cl)cc(N[C@@H](c3ccccc3)c3cn(CCO)nn3)cc2c1Nc1ccc(F)c(Cl)c1` [Example 738, (S)-8-chloro-4-((3-chloro-4-fluorophenyl)amino)-6-(((1-(2-hydroxyethyl)-1H-1,2,3-triazol-4-yl)(phenyl)methyl)amino)quinoline-3-carbonitrile], for which the IC50 in assay [1] (setting [3]) stood at 7 nM. Also, the EC50 in assay [2] (setting [4]) is 274 nM.
Take `CC(C)(C)N1CCC(n2cc([C@@H](Nc3cc(Cl)c4ncc(C#N)c(N[C@H]5CCOc6ccccc65)c4c3)c3ccccc3)nn2)CC1` [Example 507, 6-(((S)-(1-(1-(tert-butyl)piperidin-4-yl)-1H-1,2,3-triazol-4-yl)(phenyl)methyl)amino)-8-chloro-4-(((S)-chroman-4-yl)amino)quinoline-3-carbonitrile]: the IC50 in assay [1] (setting [3]) came to 741 nM. The EC50 in assay [2] (setting [4]) worked out at 8510 nM.
In the case of `[2H][C@](Nc1cc(Cl)c2ncc(C#N)c(NCC(C)(C)CC#N)c2c1)(c1ccc(F)cc1)c1cn(C2CC2)nn1` [Example 134, (S)-8-chloro-4-((3-cyano-2,2-dimethylpropyl)amino)-6-(((1-cyclopropyl-1H-1,2,3-triazol-4-yl)(4-fluorophenyl)methyl-d)amino)quinoline-3-carbonitrile], the IC50 in assay [1] (setting [5]) came to 6 nM. Moreover, in assay [2] (setting [4]), the EC50 worked out at 142 nM.
In the case of `[2H][C@](Nc1cc(-c2ccnnc2)c2ncc(C#N)c(NCC(C)(C)C)c2c1)(c1ccc(F)cc1)c1cn(C2CC2)nn1` [Example 75, (S)-6-(((1-cyclopropyl-1H-1,2,3-triazol-4-yl)(4-fluorophenyl)methyl-d)amino)-4-(neopentylamino)-8-(pyridazin-4-yl)quinoline-3-carbonitrile], the IC50 in assay [1] (setting [5]) amounted to 199 nM. The EC50 in assay [2] (setting [4]) was > 1000 nM.
In the case of `CC(C)(C)N1CCC(n2cc([C@@H](Nc3cc(Cl)c4ncc(C#N)c(NCc5cccc(F)c5F)c4c3)c3ccccc3)nn2)CC1` [Example 617, (S)-6-(((1-(1-(tert-butyl)piperidin-4-yl)-1H-1,2,3-triazol-4-yl)(phenyl)methyl)amino)-8-chloro-4-((2,3-difluorobenzyl)amino)quinoline-3-carbonitrile], the IC50 in assay [1] (setting [3]) came to 43 nM. Besides, the EC50 in assay [2] (setting [4]) came out at 12300 nM.
`Cn1cc(Nc2c(C#N)cnc3c(Cl)cc(N[C@@H](c4ccccc4)c4cn(C5COC5)nn4)cc23)ccc1=O` [Example 483, (S)-8-chloro-4-((1-methyl-6-oxo-1,6-dihydropyridin-3-yl)amino)-6-(((1-(oxetan-3-yl)-1H-1,2,3-triazol-4-yl)(phenyl)methyl)amino) quinoline-3-carbonitrile]: in assay [1] (setting [3]), the IC50 is 387 nM. Further, the concentration giving a half-maximal response (EC50) in assay [2] (setting [4]) was > 10000 nM.
In the case of `Cc1c([C@H](Nc2cc(Cl)c3ncc(C#N)c(NCC(C)(C)C)c3c2)c2cn(C3(C(F)(F)F)CC3)nn2)cccc1-n1cncn1` [Example 1040, (S)-8-chloro-6-(((2-methyl-3-(1H-1,2,4-triazol-1-yl)phenyl)(1-(1-(trifluoromethyl)cyclopropyl)-1H-1,2,3-triazol-4-yl)methyl)amino)-4-(neopentylamino)quinoline-3-carbonitrile], in assay [1] (setting [6]), the IC50 was determined as 4 nM. In addition, the EC50 in assay [2] (setting [7]) amounted to 87 nM.
For the compound `N#Cc1cnc2c(Cl)cc(N[C@@H](c3ccc(F)cc3)c3c[nH]nn3)cc2c1NCc1ccsc1` [Example 419, (S)-8-chloro-6-(((4-fluorophenyl)(1H-1,2,3-triazol-4-yl)methyl)amino)-4-((thiophen-3-ylmethyl)amino)quinoline-3-carbonitrile], the IC50 in assay [1] (setting [3]) is 392 nM. Further, the EC50 in assay [2] (setting [4]) is 4300 nM.
For the compound `[2H][C@](Nc1cc(Cl)c2ncc(C#N)c(NCC(C)(C)C)c2c1)(c1cn(CC2CCO2)nn1)c1ccccc1Cl` (some centres unmarked) [Example 90, 8-chloro-6-(((2-chlorophenyl) (1-(oxetan-2-ylmethyl)-1H-1,2,3-triazol-4-yl)methyl-d)amino)-4-(neopentylamino) quinoline-3-carbonitrile], the IC50 in assay [1] (setting [5]) was 26 nM. For the same compound, in assay [2] (setting [4]), the EC50 amounted to 287 nM.
`CCOC(=O)c1cccc([C@H](Nc2cc(Cl)c3ncc(C#N)c(NCC(C)(C)C)c3c2)c2cn(C3(C(F)(F)F)CC3)nn2)c1F` [Example 1087, ethyl (S)-3-(((8-chloro-3-cyano-4-(neopentylamino)quinolin-6-yl)amino)(1-(1-(trifluoromethyl)cyclopropyl)-1H-1,2,3-triazol-4-yl)methyl)-2-fluorobenzoate]: the IC50 in assay [1] (setting [6]) came to 22 nM. Besides, in assay [2] (setting [7]), the EC50 is 375 nM.
As to `[2H][C@](Nc1cc(Cl)c2ncc(C#N)c(N[C@H](CCO)c3ccccc3)c2c1)(c1cccc(C#N)c1)c1cn(C2CC2)nn1` [Example 259, 8-chloro-6-(((3-cyanophenyl)(1-cyclopropyl-1H-1,2,3-triazol-4-yl)methyl-d)amino)-4-(((R)-3-hydroxy-1-phenylpropyl)amino)quinoline-3-carbonitrile], the IC50 in assay [1] (setting [5]) amounted to 5 nM. In addition, in assay [2] (setting [4]), the EC50 was found to be 87 nM.
As for `CC[C@@H](Nc1c(C#N)cnc2c(Cl)cc(N[C@H](c3cn(C(F)F)nn3)c3cccc(F)c3F)cc12)c1ccccc1` [Example 428, 8-chloro-6-(((S)-(1-(difluoromethyl)-1H-1,2,3-triazol-4-yl)(2,3-difluorophenyl)methyl)amino)-4-(((R)-1-phenylpropyl)amino) quinoline-3-carbonitrile], in assay [1] (setting [3]), the IC50 turned out to be 87 nM. The EC50 in assay [2] (setting [4]) was 1830 nM.
For `Cc1c(-c2ccnnc2)cccc1[C@H](Nc1cc(Cl)c2ncc(C#N)c(NCC(C)(C)C)c2c1)c1cn(C2(C(F)(F)F)CC2)nn1` [Example 1121, (S)-8-chloro-6-(((2-methyl-3 (pyridazin-4-yl)phenyl)(1-(1-(trifluoromethyl)cyclopropyl)-1H-1,2,3-triazol-4-yl)methyl)amino)-4-(neopentylamino)quinoline-3-carbonitrile], in assay [1] (setting [6]), the IC50 stood at 2 nM. In assay [2] (setting [7]), the EC50 amounted to 59 nM.
For the compound `CC[C@@H](Nc1c(C#N)cnc2c(Cl)cc(N[C@@H](c3ccccc3)c3cn(CCCN4CCCC4)nn3)cc12)c1ccccc1` [Example 536, 8-chloro-6-(((S)-phenyl (1-(3-(pyrrolidin-1-yl)propyl)-1H-1,2,3-triazol-4-yl)methyl)amino)-4-(((R)-1-phenylpropyl)amino)quinoline-3-carbonitrile], the IC50 in assay [1] (setting [3]) came to 3 nM. In addition, the EC50 in assay [2] (setting [4]) stood at 84 nM.
For the compound `N#Cc1cnc2c(Cl)cc(N[C@@H](c3ccc(F)cc3)c3cn(C4CC4)nn3)cc2c1N[C@H](CCF)c1ccccc1` [Compound 32], the IC50 in assay [1] (setting [5]) was determined as 5 nM. Also, the EC50 in assay [2] (setting [4]) is 78 nM.
For the compound `Cn1cc([C@@H](Nc2cc(Cl)c3ncc(C#N)c(Nc4cnc(F)c(F)c4)c3c2)c2ccccc2F)nn1` [Compound 45], the IC50 in assay [1] (setting [5]) is 10 nM. Besides, the EC50 in assay [2] (setting [4]) turned out to be 877 nM.
On to `CC(C)(C)N1CCC(n2cc([C@@H](Nc3cc(Cl)c4ncc(C#N)c(NN5CCOCC5)c4c3)c3ccccc3)nn2)CC1` [Example 580, (S)-6-(((1-(1-(tert-butyl)piperidin-4-yl)-1H-1,2,3-triazol-4-yl)(phenyl)methyl)amino)-8-chloro-4-(morpholinoamino)quinoline-3-carbonitrile], for which the IC50 in assay [1] (setting [3]) is 287 nM. Further, the EC50 in assay [2] (setting [4]) worked out at 1590 nM.
Regarding `[2H][C@](Nc1cc(Cl)c2ncc(C#N)c(Nc3ccccc3OC)c2c1)(c1ccc(F)cc1)c1cn(C2CC2)nn1` [Example 160, (S)-8-chloro-6-(((1-cyclopropyl-1H-1,2,3-triazol-4-yl)(4-fluorophenyl)methyl-d)amino)-4-((2-methoxyphenyl)amino)quinoline-3-carbonitrile], the IC50 in assay [1] (setting [5]) turned out to be 496 nM. In assay [2] (setting [4]), the EC50 was found to be 3260 nM.
As to `N#Cc1cc([C@H](Nc2cc(Cl)c3ncc(C#N)c(Nc4cnc(F)c(F)c4)c3c2)c2c[nH]nn2)ccc1F` [Example 372, (S)-8-chloro-6-(((3-cyano-4-fluorophenyl)(1H-1,2,3-triazol-4-yl)methyl)amino)-4-((5,6-difluoropyridin-3-yl)amino)quinoline-3-carbonitrile], the IC50 in assay [1] (setting [5]) is 11 nM. Besides, the EC50 in assay [2] (setting [4]) was found to be 771 nM.
As for `CC[C@@H](Nc1c(C#N)cnc2c(Cl)cc(N[C@H](c3c[nH]nn3)c3ccccc3F)cc12)c1ccccc1` [Example 444, 8-chloro-6-(((S)-(2-fluorophenyl)(1H-1,2,3-triazol-4-yl)methyl)amino)-4-(((R)-1 phenylpropyl)amino) quinoline-3-carbonitrile], the IC50 in assay [1] (setting [3]) came out at 28 nM. Besides, in assay [2] (setting [4]), the EC50 was 855 nM.
On to `Cn1ccnc1-c1cccc([C@H](Nc2cc(Cl)c3ncc(C#N)c(Nc4cnc(F)c(F)c4)c3c2)c2c[nH]nn2)c1` [Example 386, (S)-8-chloro-4-((5,6-difluoropyridin-3-yl)amino)-6-(((3-(1-methyl-1H-imidazol-2-yl)phenyl)(1H-1,2,3-triazol-4-yl)methyl)amino)quinoline-3-carbonitrile], for which the IC50 in assay [1] (setting [5]) turned out to be 5 nM. Further, the EC50 in assay [2] (setting [4]) came out at 1440 nM.
Turning to `CC(C)(C)N1CCC(n2cc([C@@H](Nc3cc(Cl)c4ncc(C#N)c(NCc5ccccc5F)c4c3)c3ccccc3)nn2)CC1` [Example 618, (S)-6-(((1-(1-(tert-butyl)piperidin-4-yl)-1H-1,2,3-triazol-4-yl)(phenyl)methyl)amino)-8-chloro-4-((2-fluorobenzyl)amino)quinoline-3-carbonitrile], the IC50 in assay [1] (setting [3]) was 53 nM. Further, the EC50 in assay [2] (setting [4]) was 1700 nM.

The IC50 is the midpoint of a concentration-inhibition curve. A word on the EC50: it is the concentration giving half of the maximal effect.

The record behind these values is patent US10316017B2, “COT modulators and methods of use thereof” (Gilead Sciences, Inc., priority 2015, dated 2019).
